Data taken from ChEMBL document CHEMBL5465560, “Selectivity Literature for EUbOPEN Chemogenomic Library” (2024).
Positions count from the first letter of the chain named.

Columns and labels:
Settings in all cases: at 1 µM
[1] = tested on: Receptor-type tyrosine-protein kinase FLT3 (Homo sapiens), P36888 [UNDEFINED MUTATION]; assay: (§1) Selectivity interaction (KinomeScan (DiscoverX)) EUB0001049a FLT3
[2] = tested on: T1, Receptor-type tyrosine-protein kinase FLT3 (Homo sapiens), P36888 [D835Y]; assay: as §1
T1 sequence (whole entry): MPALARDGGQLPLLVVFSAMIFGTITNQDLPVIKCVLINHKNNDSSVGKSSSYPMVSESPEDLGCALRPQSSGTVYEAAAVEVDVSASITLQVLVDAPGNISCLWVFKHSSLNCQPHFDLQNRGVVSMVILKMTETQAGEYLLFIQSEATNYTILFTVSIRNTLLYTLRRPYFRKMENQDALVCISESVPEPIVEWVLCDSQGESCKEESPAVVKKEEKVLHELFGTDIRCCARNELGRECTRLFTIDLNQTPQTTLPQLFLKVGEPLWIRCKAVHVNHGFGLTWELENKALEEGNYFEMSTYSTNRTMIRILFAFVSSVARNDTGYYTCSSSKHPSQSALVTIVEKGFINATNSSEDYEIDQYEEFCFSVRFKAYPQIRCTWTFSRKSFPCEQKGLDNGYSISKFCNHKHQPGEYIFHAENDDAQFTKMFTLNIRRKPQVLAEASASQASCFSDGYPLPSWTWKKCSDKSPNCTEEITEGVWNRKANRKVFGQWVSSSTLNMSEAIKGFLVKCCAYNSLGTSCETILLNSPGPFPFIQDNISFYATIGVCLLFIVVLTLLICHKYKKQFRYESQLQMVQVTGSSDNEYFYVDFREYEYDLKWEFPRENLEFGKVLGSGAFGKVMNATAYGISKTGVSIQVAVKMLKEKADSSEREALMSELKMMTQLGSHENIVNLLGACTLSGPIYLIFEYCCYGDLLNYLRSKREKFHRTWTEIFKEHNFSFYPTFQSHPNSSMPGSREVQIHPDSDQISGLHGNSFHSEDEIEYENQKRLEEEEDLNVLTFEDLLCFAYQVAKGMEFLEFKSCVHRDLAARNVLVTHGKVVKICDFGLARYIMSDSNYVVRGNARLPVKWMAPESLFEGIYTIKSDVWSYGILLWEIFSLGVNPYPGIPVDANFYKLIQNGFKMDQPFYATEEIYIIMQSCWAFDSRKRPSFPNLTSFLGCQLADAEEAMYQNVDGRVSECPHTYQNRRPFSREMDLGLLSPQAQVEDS

[3] = tested on: T2, Receptor-type tyrosine-protein kinase FLT3 (Homo sapiens), P36888 [K663Q]; assay: as §1
T2 sequence (whole entry): T1 sequence (whole entry) with K663Q, Y835D

[4] = tested on: T3, Receptor-type tyrosine-protein kinase FLT3 (Homo sapiens), P36888 [R834Q]; assay: as §1
T3 sequence (whole entry): T1 sequence (whole entry) with R834Q, Y835D

COc1cc(Nc2nc(C)cc(-c3cnn4nc(OC)ccc34)n2)cc(C(F)(F)F)c1
% of control [1]: 81%
% of control [2]: 79%
% of control [3]: 78%
% of control [4]: 100%
